According to patent US20240091215A1, “TASQUINIMOD OR A PHARMACEUTICALLY ACCEPTABLE SALT THEREOF FOR USE IN THE TREATMENT OF MYELODYSPLASTIC SYNDROME” (ACTIVE BIOTECH AB, priority 2021, published 2024):

Assays:
[1] = tested on: IRAK1, NF-κB-p65 and gasdermin in MDS MSCs; assay: Western blot of IRAK1, NF-κB-p65 and gasdermin in MDS MSCs treated with S100A9 with or without tasquinimod; format: cell-based, human; conditions: S100A9 1.5 μg/ml, tasquinimod 10 μM, 48 h
Experimental: GAPDH (38 kDa) served as reference protein. Lane 1=untreated control; lane 2=treated with S100A9; lane 3=treated with S100A9/tasquinimod.
(§1) BM mononuclear cells were isolated by percoll gradient centrifugation and MSCs were grown as adherent monolayer in DMEM/10% FCS. Passages 2-5 were used for the experiments.
(§2) To mimic inflammatory conditions, in-vitro cultured MSCs were treated with recombinant S100A8, S100A9 or the S100A8/9 heterodimer (each 1.5 μg/ml) or TNF-α (10 ng/ml) in the presence or absence of tasquinimod (10 μM) for different time periods depending on the subsequent experiments. Hematopoietic stem and progenitor cells (HSPCs) for cocultures were isolated using CD34 antibody-conjugated magnetic beads, according to the manufacturer's instructions (Miltenyi Biotec) and were added in CellGro medium (CellGenix) containing stem cell factor (SCF), FLT3-L and IL-3 (10 ng/ml each).
(§3) Whole cell lysates were prepared using RIPA lysis buffer containing proteinase inhibitors. Protein concentrations were determined using the BCA Protein Assay Kit. Equal protein amounts were separated by SDS-polyacrylamide gel electrophoresis and transferred to polyvinylidene fluoride membranes for detection of specific proteins using primary antibodies for IRAK1, NF-κB-p65, gasdermin and OXPHOS overnight at 4° C., following secondary antibodies HRP-conjugated goat anti-mouse IgG (Invitrogen) or donkey anti-rabbit IgG (GE Healthcare), respectively. The blots were incubated with ECL Plus Western Blotting reagent (Amersham) and the signals captured using a LAS3000 imaging system.

[2] = tested on: IL-1β, IL-18, Casp1 and PD-L1 mRNA in MDS MSCs; assay: RT-PCR mRNA expression of IL-1β, IL-18, caspase 1 and PD-L1 in MDS MSCs treated with S100A9 with or without tasquinimod; format: cell-based, human; conditions: 48 h
Experimental: FIG. 3 is a bar chart representing the mRNA expression levels of IL-1β, IL-18, Casp1 and PD-L1 by real-time PCR of MDS MSCs after 48 h treatment with tasquinimod only (TASQ), with S100A9 only (S100A9), or with both S100A9 and tasquinimod (S100A9+TASQ). Amplicons for IL-1β, IL-18, Casp1 and PD-L1 were normalized to endogenous GAPDH expression and the untreated MSCs were set to 1 (=control).
as §1, §2
RNA was isolated from MSC using RNeasy Mini Kit (Qiagen) and reverse transcribed into cDNA using RevertAid™ cDNA synthesis kit (Thermo Fisher) with oligo-dT primers. Relative target quantity was determined using the comparative CT (ΔΔCT) method. RT-PCR was performed using SYBR Green/ROX PCR master mix (Thermo) and target specific primers for caspasel, IL1β, IL18, PD-L1, PD-1 and GAPDH as housekeeping gene on a Taqman™ Fast 3500 cycler (Applied Biosystems). Amplicons were normalized to endogenous GAPDH control.

[3] = tested on: PD-L1 in healthy and CMML MSCs; assay: Western blot of PD-L1 in healthy and CMML MSCs; format: cell-based, human; conditions: 48 h; for PD-L1 expression in the absence of S100A9: tasquinimod alone
Experimental: Lane 1=untreated control; lane 2=treated with tasquinimod; lane 3=treated with S100A9; […] tasquinimod.
as §1, §2, §3

αSMA and NF-κB in MSCs = assay: Immunofluorescence staining and confocal microscopy of S100A9/tasquinimod treated MSCs; format: cell-based, human
Experimental: as §2
S100A9/tasquninimod treated MSCs were fixed with 4% paraformaldehyde. Cells were permeabilized using PBS containing 0.1% Triton™ X-100 (T-PBS), blocked with T-PBS containing 10% FCS and 1% HSA (IF-Buffer) and incubated over night at 4° C. with antibodies against αSMA, NFκB or PD-L1. Secondary antibodies polyclonal sheep-anti-rabbit-Cy3 or polyclonal goat-anti-mouse-Cy2 were incubated for 1 h at room temperature. Cell nuclei were counterstained with DAPI. Imaging analysis was performed by confocal microscopy (LSM800, Carl Zeiss) and ZEN software.

MDS MSCs = assay: MSC differentiation assays (adipogenic, osteogenic); format: cell-based, human
Experimental: Adipogenic and osteogenic differentiation capacity is an important functional feature of MSCs and often altered in MDS leading to changes in the bone metabolism. Therefore, the effect of tasquinimod on adipogenic and osteogenic differentiation was assayed as follows.
MSCs were seeded in 6-well plates (5×10^3 MSCs/cm^2), cultured to subconfluency for approximately 4 days in DMEM, and subjected to adipogenic (0.5 mM […], 1 μM dexamethasone, 100 μM indomethacin, 10 μM insulin) or osteogenic (0.1 μM dexamethasone, 0.2 mM ascorbate-2-phosphate, 10 mM β-glycerophosphate) differentiation. […] Differentiation was graded according to microscopic analysis as follows: 0=no differentiation; 1=25% of the culture wells contain differentiated cells; 2=50% of the culture wells contain differentiated cells; 3=75% of the culture wells contain differentiated cells; 4=100% of the culture wells contain differentiated cells. Osteogenesis was determined by van Kossa staining, and the catalytic activity of ALP was determined.

[4] = tested on: IRAK1, NF-κB-p65 and gasdermin in MDS MSCs; assay: Western blot of IRAK1, NF-κB-p65 and gasdermin in MDS MSCs treated with TNF-α with or without tasquinimod; format: cell-based, human; conditions: MSC cultures, TNF-α 10 ng/ml, tasquinimod 10 μM, 48 h
Experimental: GAPDH (38 kDa) served as reference protein. Lane 1=treated with TNF-α; lane 2=treated with TNF-α and tasquinimod.
as §2, §3

[5] = tested on: MDS MSC co-cultured with hematopoietic progenitor cells; assay: CAF-C assay, MSC/HSPC co-culture with pre-treated stromal layers; format: cell-based, human; conditions: stromal layers pre-treated with S100A9 and tasquinimod, one to four weeks
Experimental: FIG. 6a is a bar chart showing quantification of CAF-C when co-culturing MDS MSC with hematopoietic progenitor cells, after one, two, three and four weeks without the presence of either S100A9 or tasquinimod (“without”), in the presence of tasquinimod (TASQ), in the presence of S100A9 (S100A9), and in the presence of both s100A9 and tasquinimod (S100A9+TASQ).
as §2
CAF-C assays were performed over four weeks using pre-treated healthy or MDS MSC layers. One thousand magnetically isolated CD34+ cells were added in StemMACS™ HSC-CFU complete medium (Miltenyi Biotec).

[6] = tested on: MDS MSC co-cultured with hematopoietic progenitor cells; assay: CFU assay with cells harvested after one week of MSC/HSPC co-culture; format: cell-based, human; conditions: colonies counted after 2 weeks
From the text: FIG. 6b is a bar chart showing the number of colonies/300 cells in CFU assays performed using MDS MSC cells cocultured with hematopoietic progenitor cells, harvested after one week of co-culture in the presence of S100A9 or in the presence of both S100A9 and tasquinimod or in the absence of both S100A9 and tasquinimod (“control”), with 300 cells being plated in enriched methylcellulose medium with recombinant cytokines (MethoCult™ H4435, STEMCELL Technologies). Colonies were counted after 2 weeks and classified under a microscope or with the STEMvision™ system (STEMCELL Technologies). FIG. 6c is a bar chart showing the number of colonies/300 cells in CFU assays performed using MDS MSC cells and hematopoietic progenitor cells, harvested after one week of co-culture in the presence (“TASQ”) or absence (“without”) of tasquinimod, with 300 cells being plated in enriched methylcellulose medium with recombinant cytokines (MethoCult™ H4435, STEMCELL Technologies). Colonies were counted after 2 weeks and classified under a microscope or with the STEMvision™ system (STEMCELL Technologies). […] Colonies were counted after 2 weeks and classified under a microscope or with the STEMvision™ system (STEMCELL Technologies).

PD-1 = PD-1 expression (RT-PCR) in MSC/HSPC co-cultures; format: cell-based, human; conditions: summary statement; PD-1 measured in co-cultured HSPCs
Experimental: as §2
[…] Relative target quantity was determined using the comparative CT (ΔΔCT) method. RT-PCR was performed using SYBR Green/ROX PCR master mix (Thermo) and target specific primers for caspasel, IL1β, IL18, PD-L1, PD-1 and GAPDH as housekeeping gene on a Taqman™ Fast 3500 cycler (Applied Biosystems). Amplicons were normalized to endogenous GAPDH control.

MSCs [7] = assay: CellROX Deep Red Flow Cytometry Assay of ROS levels; format: cell-based, human
Experimental: The inflammatory micromilieu of the myelodysplastic bone marrow leads to increased ROS levels which may cause aberrant cellular function. Therefore, the effect of tasquinimod on ROS levels in MSCs is assayed using the CellROX™ Deep Red Flow Cytometry Assay kit (Thermo Fisher) according to the manufacturer's instructions.

MSCs [8] = assay: Seahorse Metabolic Extracellular Flux Profiling (Cell Mito Stress Test); format: cell-based, human
Experimental: The impact of tasquinimod on cellular metabolism is investigated by using the Seahorse system (Agilent Technologies). MSCs are seeded in Seahorse 96-well plates. Cell Mito Stress Test (XF Cell Mito Stress Test Kit, Agilent Technologies) is performed following the standard protocol. Oxygen consumption rate (OCR) and Extracellular Acidification Rate (ECAR) are detected after injection of oligomycin ([…]), carbonyl cyanide-p-trifluoromethoxyphenylhydrazone (FCCP, […]), and the combination of rotenone and antimycin (Rot/AA, […]). OCR is measured with an XF96 analyzer and the Wave software (version 2.2.0).

[9] = tested on: genetically modified mice (e.g. B6; 129-Trp53bp^tm1Jc/J and NUP98/HOXD13); assay: In vivo validation in genetically modified mice developing signs of MDS; conditions: MDS mouse models, blood counts weekly, bone marrow after 20 weeks
Experimental: The promising in vitro results are validated in vivo in different mouse models. In these models, genetically modified mice (e.g. B6; 129-Trp53bp^tm1Jc/J and NUP98/HOXD13) which develop typical signs of MDS such as anemia and cytopenia are treated with tasquinimod. Peripheral blood counts are recorded weekly and finally the bone marrow is analysed after 20 weeks.

PD-L1 = conditions: Oncoimmunology 2016, Vol. 5, No. 6, e1145333; cited from earlier work
[10] = MDS MSCs, S100A9-induced increase, tasquinimod 10 μM
[11] = MSCs, induced by S100A9, tasquinimod 10 μM

In the case of `COc1cccc2c1c(O)c(C(=O)N(C)c1ccc(C(F)(F)F)cc1)c(=O)n2C` [tasquinimod, 4-hydroxy-5-methoxy-N,1-dimethyl-2-oxo-N-[4-(trifluoromethyl)phenyl]-1,2-dihydroquinoline-3-carboxamide], the “expression of IRAK1 (Western blot)” value [1] was “inhibited the expression”, the “expression of NF-κB-p65 (Western blot)” value [1] was “inhibited the expression” and the “expression of gasdermin (Western blot)” value [1] was “inhibited the expression”. The “mRNA expression of IL-1β” value [2, 10] was “this increase was inhibited”, the “mRNA expression of IL-18” value [2, 10] was “this increase was inhibited” and the “mRNA expression of caspase 1” value [2, 10] was “this increase was inhibited”. For the same molecule, the “PD-L1 expression at the mRNA level” value [2, 11] was “suppressed”, the “PD-L1 expression in the absence of S100A9” value ([3]; MSC from CMML MDS patients) was “downregulation of PD-L1” and the “PD-L1 expression in the absence of S100A9” value ([3]; MSC from healthy volunteers) was “downregulation of PD-L1”. The “PD-L1 expression at the protein level” value [3, 11] was “suppressed”, the “NF-kB (nuclear) expression in MSCs” value (αSMA and NF-κB in MSCs) was “reduces” and the “αSMA expression in MSCs” value (αSMA and NF-κB in MSCs) was “reduces”. For the same molecule, the “decrease in number of adipocytes (Oil red O positive cells)” value (MDS MSCs; MDS MSCs, after 14 days of cultivation in differentiation medium) was 25-50%, the adipogenic differentiation (MDS MSCs; MSC differentiation assay) was “reducing” and the osteogenic differentiation (MDS MSCs; MSC differentiation assay) was “improving”. For the same molecule, the “expression of IRAK1 (Western blot)” value [4] was “inhibited the expression”, the “expression of NF-κB-p65 (Western blot)” value [4] was “inhibited the expression” and the “expression of gasdermin (Western blot)” value [4] was “inhibited the expression”. The “number of CAF-Cs” value [5] was “increased”, the “number of CFUs” value [6] was “increased” and the PD-1 expression (PD-1) was “inhibition”. The “ROS levels in MSCs” value (MSCs [7]) was “block elevated ROS levels”, the “Spare Respiratory Capacity” value (MSCs [8]) was “improved” and the cellular stress (MSCs [8]) was “reduced cellular stress”. For the same molecule, the “restoration of functional hematopoiesis” value [9] was “partly restore functional hematopoiesis” and the “expression of PD-L1, previously reported” value (PD-L1) was “upregulate expression of PD-L1”.
